Literature values in patent publication US20190263765A1, “SYNERGISTIC ANTICOAGULANT COMPOSITION” (priority 2018, published 2019).

Settings: background statement

Row | SMILES | clearance from the body (in words) | clearance from the body [h]
1 | O=c1oc2ccccc2c(O)c1C1CC(c2ccc(-c3ccc(Br)cc3)cc2)Cc2ccccc21 (centres unmarked) [brodifacoum] | requires months | 
2 | CC(=O)CC(c1ccccc1)c1c(O)c2ccccc2oc1=O (centres unmarked) [warfarin] |  | 72 to 96
